Where two headings read alike, the source gives them in different places.
How the values were obtained:
[1] = target: T1, synthetic red click beetle luciferase RD (RDver5.2; YG#81-6G01 variant A224H/S247H/N346I/H348Q/R351G), SEQ ID NO: 222 (Pyrophorus plagiophthalamus, UniProt Q718C1); assay: Km determination with partially purified enzyme (Table 3), RD; format: biochemical
T1 construct: C-terminal tail changed
From the text: (§1) The parent click beetle luciferase YG#81-6G1 (“YG”), and the synthetic click beetle luciferase genes GRver5.1 (“GR”), RDver5.2 (“RD”), and RD156-1H9 were cloned into the four pGL3 reporter vectors (Promega Corp.): • pGL3-Basic=no promoter, no enhancer • pGL3-Control=SV40 promoter, SV40 enhancer • pGL3-Enhancer=SV40 enhancer (3′ to luciferase coding sequences) • pGL3-Promoter=SV40 promoter. The primers employed in the assembly of GR and RD synthetic genes facilitated the cloning of those genes into pRAM vectors. To introduce the genes into pGL3 vectors (Promega Corp., Madison, Wis.) for analysis in mammalian cells, each gene in a pRAM vector (pRAM RDver5.1, pRAM GRver5.1, and pRAM RD156-1H9) was amplified to introduce an Nco I site at the 5′ end and an Xba I site at the 3′ end of the gene. The primers for pRAM RDver5.1 and pRAM GRver5.1 were: […]
(§2) Partially purified enzymes expressed from the synthetic genes and the parent gene were employed to determine Km for luciferin and ATP (see Table 3).

[2] = system: click beetle luciferase YG#81-6G01 (mutant of wild type LucPplYG, SEQ ID NO: 23), SEQ ID NO: 24; conditions: vs wild type LucPplYG; cited from earlier work
MCF-7 cells = assay: TPA induction of Renilla luciferase co-reporter vectors in transfected MCF-7 cells (Table 13); format: cell-based; conditions: Homo sapiens, MCF7, 24 h, 0.2 nM TPA, vs untreated
Protocol: Experimental treatment sometimes may activate cryptic sites within the gene and cause induction or suppression of the co-reporter expression, which would compromise its function as co-reporter for normalization of transfection efficiencies. One example is that TPA induces expression of co-reporter vectors harboring the wild-type gene when transfecting MCF-7 cells. 500 ng pRL-TK (native), 5 μg native and synthetic pRG-B, 2.5 μg native and synthetic pRG-TK were transfected per well of MCF-7 cells. 100 ng/well pGL3-control (firefly luc+) was co-transfected with all RL plasmids. Carrier DNA, pUC19, was used to bring the total DNA transfected to 5.1 μg/well. 15.3 μl TransFast Transfection Reagent (Promega Corp., Madison, Wis.) was added per well. Sixteen hours later, cells were trypsinized, pooled and split into six wells of a 6-well dish and allowed to attach to the well for 8 hours. Three wells were then treated with the 0.2 nM of the tumor promoter, TPA (phorbol-12-myristate-13-acetate, Calbiochem #524400-S), and three wells were mock treated with 20 μl DMSO. Cells were harvested with 0.4 ml Passive Lysis Buffer 24 hours post TPA addition.

[3] = target: T2, synthetic red click beetle luciferase RDver5.2 (YG#81-6G01 variant A224H/S247H/N346I/H348Q/R351G), SEQ ID NO: 222 (Pyrophorus plagiophthalamus, UniProt Q718C1); assay: Km for luciferin, lysates of bacterial cells (Table 6), RDver5.2; format: biochemical; conditions: read-out: Km Luciferin, CCLR lysate diluted 1:10, HEPES pH 7.8
T2 construct: C-terminal tail changed; lysate of bacterial cells
Protocol: (§3) The Km values for luciferin and the luminescence intensity relative to RDver5.2 were determined for all three clones in several independent experiments. All cells samples were processed with CCLR lysis buffer (E1483, Promega Corp., Madison, Wis.) and diluted 1:10 into buffer (25 mM HEPES pH 7.8, 5% glycerol, 1 mg/ml BSA, 150 mM NaCl). Table 7 summarizes the results (Lum: luminescence values were normalized to optical density; measurements for independent experiments are separated by forward slashes) from expression in bacterial cells. RD156-1H9, the clone with the highest luminescence intensity (5 to 10-fold increase) also has an about 2-fold higher Km for luciferin.

[4] = target: T3, click beetle luciferase RDver5.2 variant RD156-1H9 (M2I/S349T/K488T/E538V), SEQ ID NO: 223 (Pyrophorus plagiophthalamus, UniProt Q718C1); format: biochemical; conditions: for Km: read-out: Km Luciferin, CCLR lysate diluted 1:10, HEPES pH 7.8
T3 construct: C-terminal tail changed; lysate of bacterial cells
Protocol: Protocols and procedures used for the directed evolution are detailed in see PCT/WO9914336. […] The libraries were screened with the robot and clones with the highest LI values were selected. These clones were shuffled together and another robotic screen was completed with an incubation temperature of 46° C.
as §3, with “cells.” for “cells. RD156-1H9, the clone with the highest luminescence intensity (5 to 10-fold increase) also has an about 2-fold higher Km for luciferin.”

[5] = target: T4, click beetle luciferase RDver5.2 variant RD156-1A5 (Pyrophorus plagiophthalamus, UniProt Q718C1, A224Y/A287S/C127T/C60V/F45V, form not given/H348Q/I288V/I91V/K85T/L262F/N249T/N346I/S247H/V325A/V389I/Y183F); assay: Km for luciferin, lysates of bacterial cells (Table 6), RD156-1A5; format: biochemical; conditions: read-out: Km Luciferin, CCLR lysate diluted 1:10, HEPES pH 7.8
T4 construct: lysate of bacterial cells
Protocol: (§4) Protocols and procedures used for the directed evolution are detailed in see PCT/WO9914336. DNA from the four clones with lower Km was combined and three libraries of random mutants were produced. The libraries were screened with the robot and clones with the highest LI values were selected. These clones were shuffled together and another robotic screen was completed with an incubation temperature of 46° C. The three clones with the highest LI values were RD156-0B4, RD156-1A5, and RD156-1H9.
as §3

[6] = target: T5, click beetle luciferase RDver5.2 variant RD156-0B4 (Pyrophorus plagiophthalamus, UniProt Q718C1, A224Y/A287S/C127T/C60V/F45V, form not given/H348Q/I288V/I91V/K85T/L262F/N249T/N346I/S247H/V325A/V389I/Y183F); assay: Km for luciferin, lysates of bacterial cells (Table 6), RD156-0B4; format: biochemical; conditions: read-out: Km Luciferin, CCLR lysate diluted 1:10, HEPES pH 7.8
T5 construct: lysate of bacterial cells
Protocol: as §4, §3

[7] = substrate: Nc1ncnc2c1ncn2[C@@H]1O[C@H](COP(=O)(O)OP(=O)(O)OP(=O)(O)O)[C@@H](O)[C@H]1O; assay: Km determination with partially purified enzyme (Table 3), YG parent; format: biochemical, Pyrophorus plagiophthalamus; conditions: other: partially purified enzyme
From the text: as §2

[8] = substrate: O=C(O)[C@H]1CSC(c2nc3ccc(O)cc3s2)=N1; assay: as above; format: biochemical, Pyrophorus plagiophthalamus; conditions: other: partially purified enzyme
From the text: as §2

[9] = substrate: O=C(O)[C@H]1CSC(c2nc3ccc(O)cc3s2)=N1; assay: Km for luciferin, lysates of bacterial cells (Table 6), GRver5.1; format: biochemical, Pyrophorus plagiophthalamus
Protocol: as §3

[10] = substrate: Nc1ncnc2c1ncn2[C@@H]1O[C@H](COP(=O)(O)OP(=O)(O)OP(=O)(O)O)[C@@H](O)[C@H]1O; assay: Km determination with partially purified enzyme (Table 3), GR; format: biochemical, Pyrophorus plagiophthalamus; conditions: other: partially purified enzyme
From the text: as §1, §2

[11] = substrate: O=C(O)[C@H]1CSC(c2nc3ccc(O)cc3s2)=N1; assay: as above; format: biochemical, Pyrophorus plagiophthalamus; conditions: other: partially purified enzyme
From the text: as §1, §2

T3 sequence (Q718C1 entry or part of it, stated change not applied): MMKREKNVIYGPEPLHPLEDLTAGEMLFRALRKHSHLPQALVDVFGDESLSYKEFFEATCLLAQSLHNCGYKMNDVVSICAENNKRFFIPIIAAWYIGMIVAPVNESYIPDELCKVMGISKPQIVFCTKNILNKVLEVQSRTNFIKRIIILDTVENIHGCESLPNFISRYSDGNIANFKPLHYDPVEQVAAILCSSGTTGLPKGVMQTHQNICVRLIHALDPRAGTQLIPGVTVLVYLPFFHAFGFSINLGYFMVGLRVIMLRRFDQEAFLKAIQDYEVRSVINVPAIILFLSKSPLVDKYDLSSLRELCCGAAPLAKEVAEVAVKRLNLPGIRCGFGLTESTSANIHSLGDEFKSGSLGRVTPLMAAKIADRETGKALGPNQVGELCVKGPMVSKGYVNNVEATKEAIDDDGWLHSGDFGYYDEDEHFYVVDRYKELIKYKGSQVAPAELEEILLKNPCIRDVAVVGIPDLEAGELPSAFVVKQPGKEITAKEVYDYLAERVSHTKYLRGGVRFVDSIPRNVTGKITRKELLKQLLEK
T2 sequence (Q718C1 entry or part of it, stated change not applied): as above
T1 sequence (Q718C1 entry or part of it, stated change not applied): as above

Nc1ncnc2c1ncn2[C@@H]1O[C@H](COP(=O)(O)OP(=O)(O)OP(=O)(O)O)[C@@H](O)[C@H]1O [ATP]
Km ([1]; read-out: KM (ATP)): 46 µM
KM for ATP compared to the wild type [2]: lower

CCCCCCCCCCCCCC(=O)O[C@@H]1[C@@H](C)[C@@]2(O)[C@@H](C=C(CO)C[C@]3(O)C(=O)C(C)=C[C@@H]23)[C@@H]2C(C)(C)[C@]12OC(C)=O [TPA, phorbol-12-myristate-13-acetate]
fold induction (MCF-7 cells; pRG-B (final, synthetic Renilla gene)): 1.47
fold induction (MCF-7 cells; pRG-B (native Renilla gene)): 8
fold induction (MCF-7 cells; pRG-tk (final, synthetic Renilla gene)): 0.88
fold induction (MCF-7 cells; pRG-tk (native Renilla gene)): 4.36
fold induction (MCF-7 cells; pRL-tk (native Renilla gene)): 4.4

O=C(O)[C@H]1CSC(c2nc3ccc(O)cc3s2)=N1 [luciferin]
Km ([3]; prep #1, independent experiment 1): 12 µM
Km ([3]; prep #1, independent experiment 2): 14 µM
Km ([3]; prep #1, independent experiment 3): 14 µM
Km ([3]; prep #2, independent experiment 1): 40 µM
Km ([3]; prep #2, independent experiment 2): 50 µM
Km ([4]; independent experiment 1): 20 µM
Km ([4]; independent experiment 2): 23 µM
Km ([4]; independent experiment 3): 23 µM
luciferin K, fold higher ([4]; relative to GRver5.1): approximately 40 fold
Km for luciferin, fold higher ([4]; relative to RDver5.2): about 2 fold
Km ([5]; independent experiment 1): 13 µM
Km ([5]; independent experiment 2): 13 µM
Km ([1]; read-out: KM (LH2)): 24.5 µM
Km ([6]; independent experiment 1): 8 µM
Km ([6]; independent experiment 2): 10 µM
KM for luciferin compared to the wild type [2]: lower

B1: click beetle (Pyrophorus plagiophthalamus) luciferase YG#81-6G01 (YG parent, mutant of wild type LucPplYG), SEQ ID NO: 24 (Pyrophorus plagiophthalamus; … (protein)
chain: MMKREKNVIYGPEPLHPLEDLTAGEMLFRALRKHSHLPQALVDVVGDESLSYKEFFEATVLLAQSLHNCGYKMNDVVSICAENNTRFFIPVIAAWYIGMIVAPVNESYIPDELCKVMGISKPQIVFTTKNILNKVLEVQSRTNFIKRIIILDTVENIHGCESLPNFISRYSDGNIANFKPLHFDPVEQVAAILCSSGTTGLPKGVMQTHQNICVRLIHALDPRAGTQLIPGVTVLVYLPFFHAFGFSITLGYFMVGLRVIMFRRFDQEAFLKAIQDYEVRSVINVPSVILFLSKSPLVDKYDLSSLRELCCGAAPLAKEVAEVAAKRLNLPGIRCGFGLTESTSANIHSLRDEFKSGSLGRVTPLMAAKIADRETGKALGPNQVGELCIKGPMVSKGYVNNVEATKEAIDDDGWLHSGDFGYYDEDEHFYVVDRYKELIKYKGSQVAPAELEEILLKNPCIRDVAVVGIPDLEAGELPSAFVVKQPGKEITAKEVYDYLAERVSHTKYLRGGVRFVDSIPRNVTGKITRKELLKQLLEKAGG
notes: wild-type residues 540-543 replaced by 3 other residues
Km [7]: 17 μM μM
Km [8]: 2 μM μM

B2: synthetic green click beetle luciferase GRver5.1 (YG#81-6G01 variant A224V), SEQ ID NO: 31 (Pyrophorus plagiophthalamus; … (protein)
chain: MMKREKNVIYGPEPLHPLEDLTAGEMLFRALRKHSHLPQALVDVVGDESLSYKEFFEATVLLAQSLHNCGYKMNDVVSICAENNTRFFIPVIAAWYIGMIVAPVNESYIPDELCKVMGISKPQIVFTTKNILNKVLEVQSRTNFIKRIIILDTVENIHGCESLPNFISRYSDGNIANFKPLHFDPVEQVAAILCSSGTTGLPKGVMQTHQNICVRLIHALDPRVGTQLIPGVTVLVYLPFFHAFGFSITLGYFMVGLRVIMFRRFDQEAFLKAIQDYEVRSVINVPSVILFLSKSPLVDKYDLSSLRELCCGAAPLAKEVAEVAAKRLNLPGIRCGFGLTESTSANIHSLRDEFKSGSLGRVTPLMAAKIADRETGKALGPNQVGELCIKGPMVSKGYVNNVEATKEAIDDDGWLHSGDFGYYDEDEHFYVVDRYKELIKYKGSQVAPAELEEILLKNPCIRDVAVVGIPDLEAGELPSAFVVKQPGKEITAKEVYDYLAERVSHTKYLRGGVRFVDSIPRNVTGKITRKELLKQLLEKAGG
notes: C-terminal tail changed; lysate of bacterial cells
Km ([9]; other: prep #1, CCLR lysate diluted 1:10, HEPES pH 7.8): 0.5 µM
Km ([9]; other: prep #2, CCLR lysate diluted 1:10, HEPES pH 7.8): 3 µM

B3: synthetic green click beetle luciferase GR (GRver5.1; YG#81-6G01 variant A224V), SEQ ID NO: 31 (Pyrophorus plagiophthalamus; … (protein)
chain: MMKREKNVIYGPEPLHPLEDLTAGEMLFRALRKHSHLPQALVDVVGDESLSYKEFFEATVLLAQSLHNCGYKMNDVVSICAENNTRFFIPVIAAWYIGMIVAPVNESYIPDELCKVMGISKPQIVFTTKNILNKVLEVQSRTNFIKRIIILDTVENIHGCESLPNFISRYSDGNIANFKPLHFDPVEQVAAILCSSGTTGLPKGVMQTHQNICVRLIHALDPRVGTQLIPGVTVLVYLPFFHAFGFSITLGYFMVGLRVIMFRRFDQEAFLKAIQDYEVRSVINVPSVILFLSKSPLVDKYDLSSLRELCCGAAPLAKEVAEVAAKRLNLPGIRCGFGLTESTSANIHSLRDEFKSGSLGRVTPLMAAKIADRETGKALGPNQVGELCIKGPMVSKGYVNNVEATKEAIDDDGWLHSGDFGYYDEDEHFYVVDRYKELIKYKGSQVAPAELEEILLKNPCIRDVAVVGIPDLEAGELPSAFVVKQPGKEITAKEVYDYLAERVSHTKYLRGGVRFVDSIPRNVTGKITRKELLKQLLEKAGG
notes: C-terminal tail changed
Km [10]: 25 μM μM
Km [11]: 1.3 μM μM

— patent publication US7906282B2, “Synthetic nucleic acid molecule compositions and methods of preparation” (Promega Corporation, priority 2000, dated 2011)
